Reference: PMC9030691, “Toxicokinetics of β-Amanitin in Mice and In Vitro Drug–Drug Interaction Potential” (Pharmaceutics, 2022)
Where two headings read alike, the source gives them in different places.

Tests used:
OAT1 = target: T1, OAT1 (Homo sapiens, UniProt Q4U2R8); experiment: Uptake of amanitins into HEK293-OAT1 cells; format: in vitro ADME; settings: 50 μM amanitin, 5 min, 37 °C, HBSS, 20 min preincubation, with and without probenecid, LC-HRMS, n = 3
T1 construct: expressed in transfected cells; host or cells: HEK293
T1 sequence (Q4U2R8 1-563): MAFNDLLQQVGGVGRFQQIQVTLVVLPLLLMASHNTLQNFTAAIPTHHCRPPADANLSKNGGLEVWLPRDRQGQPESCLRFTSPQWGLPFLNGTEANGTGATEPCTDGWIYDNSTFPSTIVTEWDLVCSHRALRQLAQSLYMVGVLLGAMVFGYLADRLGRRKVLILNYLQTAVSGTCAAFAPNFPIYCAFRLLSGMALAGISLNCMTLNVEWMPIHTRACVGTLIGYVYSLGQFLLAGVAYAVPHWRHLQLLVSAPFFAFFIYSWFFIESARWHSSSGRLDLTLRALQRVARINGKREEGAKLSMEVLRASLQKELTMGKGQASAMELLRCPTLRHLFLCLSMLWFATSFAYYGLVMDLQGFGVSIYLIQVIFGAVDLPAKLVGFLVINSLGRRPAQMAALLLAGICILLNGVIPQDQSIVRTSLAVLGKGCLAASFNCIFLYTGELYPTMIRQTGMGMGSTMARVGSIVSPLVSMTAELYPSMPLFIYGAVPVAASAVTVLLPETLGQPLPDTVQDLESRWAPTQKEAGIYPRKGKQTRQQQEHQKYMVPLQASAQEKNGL
Method: HEK293 cells overexpressing OCT2, MATE2-K, OAT1, OAT3, OATP1B1, and OATP1B3 transporters and HEK293-control cells were maintained in a humidified atmosphere of 5% CO2 at 37 °C in DMEM supplemented with 10% FBS and 5 mM non-essential amino acids. In the case of HEK293-OATP1B1, -OATP1B3, and MATE2-K cells, 2 mM sodium butyrate was added to the culture medium to enhance transport activity. Cells were seeded at 2 × 10^5 cells/well in poly-D-lysine-coated 24-well plates. After 24 h, the growth medium was discarded, and attached cells were washed with HBSS and preincubated for 20 min in HBSS at 37 °C. Stock solutions of α- and β-amanitin and representative inhibitors of transporters were diluted in HBSS to make the final concentration: cimetidine 1 mM (for OCT2), cimetidine 100 μM (for MATE2-K), probenecid 100 μM (for OAT1 and OAT3), and rifampin 100 μM (for OATP1B1 and OATP1B3). Uptake of 50 μM α- and β-amanitin was measured in the absence and presence of representative inhibitors for 5 min at 37 °C. Plates were placed immediately on ice, and cells were then washed twice with 1 mL of ice-cold HBSS. Residual HBSS was removed thoroughly from the plates. Subsequently, 150 μL of 80% methanol containing IS was added to each sample well, and the cell plates were shaken gently for 20 min at 4 °C. The remaining steps were the same as described for plasma sample preparation.

in vivo = format: in vivo; settings: male ICR mice, n = 4; for AUClast, brain: brain homogenate; for AUClast, heart: heart homogenate; for AUClast, kidney: kidney homogenate; for AUClast, liver: liver homogenate; for AUClast, lung: lung homogenate; for AUClast, spleen: spleen homogenate; for AUC(0-t): mouse, in vivo, plasma, read-out: AUClast, plasma (converted)
Method: Male mice fasted for 12 h with free access to water. Blood, brain, liver, kidney, heart, lung, stomach, intestine, and spleen were collected at 0.5, 1, 2, and 4 h after iv (0.8 mg/kg) injection or at 0.5, 1, 3, and 6 h after oral (10 mg/kg) administration of β-amanitin (n = 4 at each time point). Plasma samples (5 μL each) were harvested by centrifugation at 13,000× g for 3 min at 4 °C. Tissue samples were washed with cold normal saline, weighed, and stored at −80 °C until analysis.
Concentrations of β-amanitin in biological samples were evaluated following our previous methodology. The standard calibration curves for β-amanitin in mouse plasma ranged from 0.5 to 500 ng/mL and were linear, with a correlation coefficient of 0.9952. The inter- and intra-day accuracy and precision fell within the acceptance criteria (3.1–14.6% of coefficients of variation (CVs) and 92.5–115.0% of accuracy). The extraction recovery and matrix effect of this analytical method were 82.8–88.9% and 93.0–98.6%.
Each tissue and feces sample was homogenized in water (1:3, w/v). In total, 50 μL aliquots of urine, tissue homogenates, or feces homogenates were mixed with 150 μL of 4′-hydroxydiclofenac solution (IS, 5 ng/mL in methanol). The other steps were as described for plasma sample preparation.
Toxicokinetics of β-Amanitin in Mice and In Vitro Drug–Drug
Young Yoon Bang, Im-Sook Song, Min Seo Lee, Chang Ho Lim, Yong-Yeon Cho, Joo Young Lee, Han Chang Kang […]
1. Liquid chromatography-high resolution mass spectrometry (LC-HRMS) of β-amani-tin in various tissue samples
Blood, brain, liver, kidney, heart, lung, stomach, intestine, and spleen tissues were collected, washed with cold normal saline, and weighted. Tissue samples were homoge-nized in water (1:3, w/v) and 50 μL aliquots of tissue homogenates were mixed with 150 μL of 4’-hydroxydiclofenac solution (IS, 5 ng/mL in methanol) and vortexed for 2 min. The mixture was centrifuged at 13,000 rpm at 4 °C for 5 min, and the supernatant was then transferred to an autosampler vial. An aliquot (5 μL) was injected into the LC-HRMS sys-tem for analysis, according to the previous methods. The standard calibration curves for β-amanitin in various tissue homogenates were prepared individually using the re-spective blank tissue homogenates. Each calibration standard curve was validated using the quality control (QC) samples.
As results, the standard calibration curves for β-amanitin in various tissue homoge- […]
the quality control samples prepared in various tissue homogenates were all in acceptance criteria (Supplementary Table 1).
Table S1. Concentration ranges, representative regression equation, and correlation coefficients of the calibration curves and precision (coefficient of variation, CV) and accuracy values for β-amanitin […]
Tissue Concentration Representative regression Correlation range (ng/g tissue) equation coefficient QC (ng/g tissue) Intra-day (n = 5) Accuracy (%) CV (%) […]

[1] = iv 0.8 mg/kg, sampled 0.5, 1, 2, 4 h, LC-HRMS, mean ± SD
[2] = po 10 mg/kg, sampled 0.5, 1, 3, 6 h, LC-HRMS, mean ± SD

Molecule: α-amanitin [reference compound]
- Uptake into HEK293-OAT1 cells compared with HEK293 control cells (transport substrate) (OAT1): not involved in the active transport

Molecule: CC[C@H](C)[C@@H]1NC(=O)CNC(=O)[C@@H]2Cc3c([nH]c4cc(O)ccc34)[S@+]([O-])C[C@H](NC(=O)CNC1=O)C(=O)N[C@@H](CC(=O)O)C(=O)N1C[C@H](O)C[C@H]1C(=O)N[C@@H]([C@@H](C)[C@@H](O)CO)C(=O)N2 [β-amanitin]
- Uptake into HEK293-OAT1 cells compared with HEK293 control cells (transport substrate) (OAT1): not involved in the active transport
- AUClast, brain (in vivo; iv 0.8 mg/kg, sampled 0.5, 1, 2, 4 h, LC-HRMS): -
- AUClast, heart (in vivo; [1]): 13,397 ± 908 ng⋅min/g
- AUClast, kidney (in vivo; [1]): 142,023 ± 7510 ng⋅min/g
- AUClast, liver (in vivo; [1]): 25,780 ± 2440 ng⋅min/g
- AUClast, lung (in vivo; [1]): 35,970 ± 3070 ng⋅min/g
- Tissue to plasma (AUC) ratio, heart (in vivo; iv 0.8 mg/kg): 0.2
- Tissue to plasma (AUC) ratio, liver (in vivo; iv 0.8 mg/kg): 0.5
- Tissue to plasma (AUC) ratio, lung (in vivo; iv 0.8 mg/kg): 0.7
- Tissue to plasma (AUC) ratio, kidney (in vivo; iv 0.8 mg/kg, 0.8 mg/kg): 2.6
- Tissue to plasma (AUC) ratio, spleen (in vivo; iv 0.8 mg/kg, 0.8 mg/kg): 2.5
- AUClast, spleen (in vivo; [1]): 137,855 ± 11,949 ng⋅min/g
- AUClast, brain (in vivo; po 10 mg/kg, sampled 0.5, 1, 3, 6 h, LC-HRMS): -
- AUClast, heart (in vivo; [2]): 12,563 ± 2696 ng⋅min/g
- AUClast, intestine (in vivo; po 10 mg/kg, intestine homogenate, sampled 0.5, 1, 3, 6 h, LC-HRMS, mean ± SD): 2,066,298 ± 492,689 ng⋅min/g
- AUClast, kidney (in vivo; [2]): 158,677 ± 84,620 ng⋅min/g
- AUClast, liver (in vivo; [2]): 12,665 ± 11,731 ng⋅min/g
- AUClast, lung (in vivo; [2]): 37,831 ± 11,434 ng⋅min/g
- Tissue to plasma (AUC) ratio, heart (in vivo; po 10 mg/kg): 0.5
- Tissue to plasma (AUC) ratio, intestine (in vivo; po 10 mg/kg): 87.3
- Tissue to plasma (AUC) ratio, liver (in vivo; po 10 mg/kg): 0.5
- Tissue to plasma (AUC) ratio, lung (in vivo; po 10 mg/kg): 1.6
- Tissue to plasma (AUC) ratio, spleen (in vivo; po 10 mg/kg): 1.8
- Tissue to plasma (AUC) ratio, stomach (in vivo; po 10 mg/kg): 28.8
- AUClast, spleen (in vivo; [2]): 42,409 ± 33,867 ng⋅min/g
- AUClast, stomach (in vivo; po 10 mg/kg, stomach homogenate, sampled 0.5, 1, 3, 6 h, LC-HRMS, mean ± SD): 680,749 ± 137,691 ng⋅min/g
- AUC(0-t) (in vivo; [1]): 910 ng·h/mL
- AUC(0-t) (in vivo; [2]): 394 ng·h/mL
